Where two headings read alike, the source gives them in different places.
What was measured:
[1] = system: CIC-1 inhibited rat soleus muscles; test: Myotonia (tail AUC of force response) in 9AC-treated isolated rat soleus muscle; conditions: for EC50: Rattus norvegicus; for Ability to abolish myotonia / Slope of fit: rat soleus; for Ability to abolish myotonia: 9AC, increasing concentrations; for Reduction of myotonia within clinically observed concentration ranges: isolated muscle, species not stated at this place (study on rat and human); for Slope of fit: 3-parameter sigmoidal fit of AUC vs concentration
rat EDL muscles = test: LDH release from stimulated 9AC-treated (myotonic) rat EDL muscles; assay type: cell-based; conditions: stimulation for 60 min, LDH followed 3 hrs after contraction
Experimental: In all cases a sample was taken before stimulation (Pre), the muscles were then stimulated to contraction for 2 s at 30 Hz by 0.2 ms pulses every 3 minutes for 60 min (20 stimulations) or left resting. Open symbols are from muscles incubated with 9AC±LTG or RUF. Solid triangles are from muscles incubated with 9AC without stimulation. Immediately after cessation of stimulation, a new sample was taken from solution incubating the muscles. For the next 180 minutes a sample was taken from the incubating solution every 30 minutes, as designated by the time after stimulation. The period from cessation of stimulation to 180 min after stimulation is termed recovery.
EDL muscles from rats were isolated and placed in small chambers with oxygenated as previously described in detail (Gissel H1, Clausen T. Excitation-induced Ca(2+) influx in rat soleus and EDL muscle: mechanisms and effects on cellular integrity. Am J Physiol Regul Integr Comp Physiol. 2000 279(3): R917-24).
To explore for an effect of myotonia on muscle fibre integrity and the effect of the drugs hereupon, the release of the intracellular protein from the muscle, lactate dehydrogenase (LDH), to the incubation solution was determined in contracting EDL muscles.

[2] = system: non-myotonic rat soleus muscles; test: Contractile force in non-myotonic isolated rat soleus muscles; assay type: cell-based; conditions: three hrs incubation, 5 and 60 Hz stimulation, similar to time-matched controls
Experimental: To first test for effects of the three drugs (RUF, LCM and LTG) on force in non-myotonic rat soleus muscles, muscles were exposed to 2 s stimulations at both 5 Hz and 60 Hz every 10 mins during three hrs of drug incubation. The drug concentrations were the highest free concentrations that are tolerated clinically: For both 5 and 60 Hz stimulation, incubation with 5 μM LCM reduced force by ˜6-8% in two muscles. With 25 μM LTG force was reduced by ˜6% in three muscles, and with 100 μM RUF force was reduced by 4% in three muscles. In all cases, these reductions in force during the three hours were similar to reductions observed in time-matched control muscles.

[3] = system: isolated human abdominal rectus muscle; test: Myotonia (tail AUC) in 9AC-treated bundles of isolated human abdominal rectus muscle; assay type: cell-based; conditions: for EC50: Homo sapiens, read-out: EC50 (concentration required to reduce AUC to 50% of maximal value); for Slope of fit: human muscle bundles, 3-parameter sigmoidal fit, mean ± SEM; for Ability to abolish myotonia: isolated human muscles, 9AC, increasing concentrations
Experimental: As in rat muscles myotonia was induced with 9-AC and quantified from the AUC as determined from the cessation of stimulation to force returned to baseline. […] C and D show similar data for RUF (n=4) and LTG (n=6), respectively.
The use of human muscles was approved by the Danish Ethics Committee, Region Midtjylland, Comité I (reference number Jan. 10, 1972-20-13) and was performed in accordance with the Helsinki Declaration. Informed consent was obtained from all subjects before inclusion. Muscles were obtained from 4 male subjects admitted in relation to planned aortic aneurysm surgery at Skejby hospital. […] After isolation the tissue was transported to the laboratory at the University (<30 min) in a HEPES based solution (pH 7.4) at ˜5° C. Upon arrival to the laboratory, the tissue was incubated in often-replaced fresh Krebs-Ringer bicarbonate solution equilibrated with 5% CO2 in oxygen at 30° C. for 10 to 20 min, before further dissection into smaller bundles of approx. 4 cm length weighing 515±61 mg. For contraction experiments, bundles were tied at both ends with polyester string, to enable mounting of the preparations in the setups for measurement of contractile force.
The experiments in FIG. 1 were repeated for small muscle bundles of human abdominal muscle. 9AC was used to induce myotonia and, subsequently, LCM, RUF or LTG were added at increasing concentrations. In all cases, myotonia was reduced with increased concentration of drug. […] Similar traces were obtained with LCM-and LTG-treated bundles of human muscle. FIG. 2B-D show data and sigmoidal fits from individual bundles with additions of LCM (n=5), RUF (n=5) and LTG (n=6), respectively.

[4] = 10 min, read-out: EC50 (reduction of AUC), rat soleus, 100 μM 9AC, 15 Hz 2 s every 10 min, two muscles per compound
[5] = read-out: EC50 (concentration required to reduce AUC to 50% of maximal value), rat soleus, 100 μM 9AC, 15 Hz 2 s stimulation, 3-parameter sigmoidal fit, mean ± SEM, Table 1 prints no unit, b139 gives concentrations in μM

EC50 [1, 5] [µM] | EC50 [3] [µM] | SMILES | EC50 [1, 4] [µM] | Ability to abolish myotonia [1] | Reduction of myotonia within clinically observed concentration ranges [1] [%] | Slope of fit ([1]; mean ± SEM) | Effect on myotonia-induced LDH release (muscle damage) (rat EDL muscles) | Slope of fit [3] | Ability to abolish myotonia [3] | further results
 |  | NC(=O)c1nnn(Cc2ccccc2)c1N [Compound 1, 5-amino-1-benzyl-1H-1,2,3-triazole-4-carboxamide] | 24.7 | completely abolish myotonia |  |  |  |  |  | 
 |  | Cc1c(C(N)=O)nnn1Cc1ccccc1 [Compound 2, 1-benzyl-5-methyl-1H-1,2,3-triazole-4-carboxamide] | 19.1 | completely abolish myotonia |  |  |  |  |  | 
1.52 ± 0.13 | 5.54 ± 0.88 | Nc1nnc(-c2cccc(Cl)c2Cl)c(N)n1 [Lamotrigine, 6-(2,3-dichlorophenyl)-1,2,4-triazine-3,5-diamine] |  | completely abolish myotonia | 92±2 | −0.39 ± 0.042 | Very similar effects | −0.30 ± 0.068 | completely abolish myotonia | AUC as % of the full myotonic state ([1]; 0.5 μM LTG (FIG. 3 A3)): 90%; Reduction of AUC (myotonia) ([1]; 2 μM LTG (FIG. 1 C3)): ~46%; Reduction of AUC (myotonia) ([1]; 16 μM LTG (FIG. 1 C4)): ~98%; Reduction of force ([2]; 25 μM LTG): ~6%
18.1 ± 1.84 | 22.5 ± 1.73 | NC(=O)c1cn(Cc2c(F)cccc2F)nn1 [Rufinamide, 1-(2,6-Difluorobenzyl)-1H-1,2,3-triazole-4-carboxamide] |  | completely abolish myotonia | 92±2 | −0.29 ± 0.02 | completely blocked | −0.33 ± 0.035 | completely abolish myotonia | Reduction of AUC (myotonia) ([1]; 20 μM RUF, 9AC treated muscle (FIG. 1 B3)): more than 50%; Reduction of AUC (myotonia) ([1]; 100 μM RUF (FIG. 1 B4)): ~98%; EC50 ([1]; read-out: RUF concentration for AUC to be reduced by 50%, in presence of 0.5 μM LTG (n=6)): 7 µM; EC50 ([1]; read-out: RUF concentration for AUC to be reduced by 50%, pre-incubation with 1 μM LTG (n=4)): 3.1 µM; RUF concentration less than expected if RUF and LTG acted purely additively ([1]; isobole plot, 0.5 μM LTG): 5 µM; RUF concentration less than predicted by the assumption of additivity ([1]; isobole plot, 1 μM LTG): 3 µM; RUF concentration for half effect as % of concentration expected for additive action ([1]; with 0.5 μM or 1 μM LTG, both cases): around 50%; Reduction of force ([2]; 100 μM RUF): 4%; Effect on myotonia ([3]; 80 μM RUF, single human muscle bundle, 100 μM 9AC (FIG. 2A)): almost full abolishment of myotonia

— patent US12533345B2 (AARHUS UNIVERSITET, priority 2015, dated 2026)
